Patent publication US12077503B2, “Substituted cyclic amides and their use as herbicides” (FMC CORPORATION, priority 2015, dated 2024)

Key:
Format in all cases: in vivo
[1] = tested on: sedge, umbrella (small-flower umbrella sedge, Cyperus difformis); experiment: Test B flooded paddy test; conditions: Flood, 250 g ai/ha
Outline: (§1)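 Visual ratings (0 none to 100 complete control) are relative to untreated plants, taken 13–15 d after treatment in a greenhouse. Test material went straight into floodwater standing 3 cm above the soil, kept constant, on plants at the 2-leaf stage.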

[2] = tested on: ducksalad (Heteranthera limosa); experiment: Test B flooded paddy test; conditions: Flood, 250 g ai/ha
Outline: as §1

[3] = tested on: barnyardgrass (Echinochloa crus-galli); experiment: Test B flooded paddy test; conditions: Flood, 250 g ai/ha
Outline: as §1

rice (Oryra sativa) = experiment: Test B flooded paddy test; conditions: Flood, 250 g ai/ha
Outline: as §1

[4] = tested on: ryegrass, Italian (Italian ryegrass, Lolium multiflorum); experiment: Test A postemergence; conditions: for Plant response rating, Ryegrass, Italian: postemergence, 0 to 100 scale (0 no effect, 100 complete control)
Outline: (§2)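 Treatment is preemergence as a directed soil spray after planting, or postemergence at the one- to two-leaf stage, with test chemical in a non-phytotoxic solvent mixture plus surfactant. Plants stay in the greenhouse about 10 d before visual injury scoring on a 0 to 100 scale versus untreated controls.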

[5] = tested on: Galium (catchweed bedstraw, Galium aparine); experiment: Test A postemergence; conditions: for Plant response rating, Galium: postemergence, 0 to 100 scale (0 no effect, 100 complete control)
Outline: as §2

[6] = tested on: giant foxtail (Setaria faberii); experiment: Test A postemergence; conditions: for Plant response rating, Foxtail, Giant: postemergence, 0 to 100 scale (0 no effect, 100 complete control)
Outline: as §2

corn (Zea mays) = experiment: Test A postemergence; conditions: for Plant response rating, Corn: postemergence, 0 to 100 scale (0 no effect, 100 complete control)
Outline: as §2

[7] = tested on: pigweed (Amaranthus retroflexus); experiment: Test A postemergence; conditions: for Plant response rating, Pigweed: postemergence, 0 to 100 scale (0 no effect, 100 complete control)
Outline: as §2

[8] = tested on: ragweed (common ragweed, Ambrosia elatior); experiment: Test A postemergence; conditions: for Plant response rating, Ragweed: postemergence, 0 to 100 scale (0 no effect, 100 complete control)
Outline: as §2

[9] = tested on: blackgrass (Alopecurus myosuroides); experiment: Test A postemergence; conditions: for Plant response rating, Blackgrass: postemergence, 0 to 100 scale (0 no effect, 100 complete control)
Outline: as §2

[10] = tested on: wheat (Triticum aestivum); experiment: Test A postemergence; conditions: for Plant response rating, Wheat: postemergence, 0 to 100 scale (0 no effect, 100 complete control)
Outline: as §2

Kochia (Kochia scoparia) [11] = experiment: Test A postemergence; conditions: for Plant response rating, Kochia: postemergence, 0 to 100 scale (0 no effect, 100 complete control)
Outline: as §2

[12] = tested on: barnyardgrass (Echinochloa crus-galli); experiment: Test A postemergence; conditions: for Plant response rating, Barnyardgrass: postemergence, 0 to 100 scale (0 no effect, 100 complete control)
Outline: as §2

[13] = tested on: ryegrass, Italian (Italian ryegrass, Lolium multiflorum); experiment: Test A preemergence
Outline: as §2

[14] = tested on: giant foxtail (Setaria faberii); experiment: Test A preemergence
Outline: as §2

[15] = tested on: pigweed (Amaranthus retroflexus); experiment: Test A preemergence
[16] = tested on: ragweed (common ragweed, Ambrosia elatior); experiment: Test A preemergence
Outline: as §2

Kochia (Kochia scoparia) [17] = experiment: Test A preemergence
Outline: as §2

[18] = tested on: barnyardgrass (Echinochloa crus-galli); experiment: Test A preemergence
Outline: as §2

[19] = 0 to 100 scale where 0 is no effect and 100 is complete control, 13 to 15 d
[20] = 125 g ai/ha, visual rating after approx. 10 d
[21] = 500 g ai/ha, visual injury, approx. 10 d
[22] = 125 g ai/ha, Preemergence, visual injury after approximately 10 d, 0 to 100 scale where 0 is no effect and 100 is complete control
[23] = 500 g ai/ha, preemergence, 0 to 100 scale, 0 = no effect, 100 = complete control

`CC(C)Oc1cccc(C2CN(C)C(=O)C2C(=O)Nc2cccc(F)c2F)c1` (centres unmarked) [Compound 651] was tested, and the “Plant response rating, Sedge, Umbrella” value [1, 19] was 0, the “Plant response rating, Ducksalad” value [2, 19] was 100 and the “Plant response rating, Barnyardgrass” value [3, 19] was 60. For the same compound, the “Plant response rating, Rice” value (rice (Oryra sativa); [19]) was 0, the “Plant response rating, Ryegrass, Italian” value [4, 20] was 50 and the “Plant response rating, Ryegrass, Italian” value [4, 21] was 70. For the same compound, the “Plant response rating, Galium” value [5, 20] was 60, the “Plant response rating, Galium” value [5, 21] was 60 and the “Plant response rating, Foxtail, Giant” value [6, 20] was 80. For the same compound, the “Plant response rating, Foxtail, Giant” value [6, 21] was 80, the “Plant response rating, Corn” value (corn (Zea mays); [20]) was 80 and the “Plant response rating, Corn” value (corn (Zea mays); [21]) was 90. For the same compound, the “Plant response rating, Pigweed” value [7, 20] was 0, the “Plant response rating, Pigweed” value [7, 21] was 30 and the “Plant response rating, Ragweed” value [8, 20] was 0. For the same compound, the “Plant response rating, Ragweed” value [8, 21] was 20, the “Plant response rating, Blackgrass” value [9, 20] was 60 and the “Plant response rating, Blackgrass” value [9, 21] was 70. The “Plant response rating, Wheat” value [10, 20] was 40, the “Plant response rating, Wheat” value [10, 21] was 60 and the “Plant response rating, Kochia” value (Kochia (Kochia scoparia) [11]; [20]) was 0. For the same compound, the “Plant response rating, Kochia” value (Kochia (Kochia scoparia) [11]; [21]) was 40, the “Plant response rating, Barnyardgrass” value [12, 20] was 90 and the “Plant response rating, Barnyardgrass” value [12, 21] was 90. For the same compound, the “Plant response rating, Ryegrass, Italian” value [13, 22] was 90, the “Plant response rating, Ryegrass, Italian” value [13, 23] was 90 and the “Plant response rating, Foxtail, Giant” value [14, 22] was 90. The “Plant response rating, Foxtail, Giant” value [14, 23] was 100, the “Plant response rating, Pigweed” value [15, 22] was 40 and the “Plant response rating, Pigweed” value [15, 23] was 100. The “Plant response rating, Ragweed” value [16, 22] was 50, the “Plant response rating, Ragweed” value [16, 23] was 90 and the “Plant response rating, Kochia” value (Kochia (Kochia scoparia) [17]; [22]) was 60. The “Plant response rating, Kochia” value (Kochia (Kochia scoparia) [17]; [23]) was 70, the “Plant response rating, Barnyardgrass” value [18, 22] was 90 and the “Plant response rating, Barnyardgrass” value [18, 23] was 90.
Compound `CC(C)Oc1ccc([C@H]2CN(C)C(=O)[C@@H]2C(=O)Nc2ccccc2F)cc1` [Compound 952] has a pest or weed control at 250 g/ha ([1]; Cyperus difformis, scale of 0 to 100 where 0 is no effect and 100 is complete control, read-out: Sedge, Umbrella plant response rating) of 0%, a pest or weed control at 250 g/ha ([2]; Heteranthera limosa, scale of 0 to 100 where 0 is no effect and 100 is complete control, read-out: Ducksalad plant response rating) of 40% and a pest or weed control at 250 g/ha ([3]; Echinochloa crus-galli, scale of 0 to 100 where 0 is no effect and 100 is complete control, read-out: Barnyardgrass plant response rating) of 0%. For the same compound, the pest or weed control at 250 g/ha (rice (Oryra sativa); Oryza sativa, scale of 0 to 100 where 0 is no effect and 100 is complete control, read-out: Rice plant response rating) was 0%, the pest or weed control at 125 g/ha ([4]; Lolium multiflorum, post-emergence, 240 h, 125 g ai/ha, Postemergence, visual injury after approximately 10 d, 0 to 100 scale where 0 is no effect and 100 is complete control, read-out: Plant response rating, Ryegrass, Italian) was 0% and the pest or weed control at 125 g/ha ([5]; Galium, post-emergence, 240 h, 125 g ai/ha, Postemergence, visual injury after approximately 10 d, 0 to 100 scale where 0 is no effect and 100 is complete control, read-out: Plant response rating, Galium) was 0%. It also gave a pest or weed control at 125 g/ha ([6]; Setaria faberi, post-emergence, 240 h, 125 g ai/ha, Postemergence, visual injury after approximately 10 d, 0 to 100 scale where 0 is no effect and 100 is complete control, read-out: Plant response rating, Foxtail, Giant) of 50%, a Corn plant response rating (crop injury, 0 = no effect, 100 = complete kill) at 125 g/ha (corn (Zea mays); Zea mays, post-emergence, 240 h, 125 g ai/ha, Postemergence, visual injury after approximately 10 d, 0 to 100 scale where 0 is no effect and 100 is complete control) of 0% and a pest or weed control at 125 g/ha ([7]; Amaranthus retroflexus, post-emergence, 240 h, 125 g ai/ha, Postemergence, visual injury after approximately 10 d, 0 to 100 scale where 0 is no effect and 100 is complete control, read-out: Plant response rating, Pigweed) of 0%. It also gave a pest or weed control at 125 g/ha ([8]; Ambrosia artemisiifolia, post-emergence, 240 h, 125 g ai/ha, Postemergence, visual injury after approximately 10 d, 0 to 100 scale where 0 is no effect and 100 is complete control, read-out: Plant response rating, Ragweed) of 0%, a pest or weed control at 125 g/ha ([9]; Alopecurus myosuroides, post-emergence, 240 h, 125 g ai/ha, Postemergence, visual injury after approximately 10 d, 0 to 100 scale where 0 is no effect and 100 is complete control, read-out: Plant response rating, Blackgrass) of 0% and a plant injury at 125 g/ha ([10]; Triticum aestivum, post-emergence, 240 h, 125 g ai/ha, Postemergence, visual injury after approximately 10 d, 0 to 100 scale where 0 is no effect and 100 is complete control, read-out: Plant response rating, Wheat) of 0%. The pest or weed control at 125 g/ha (Kochia (Kochia scoparia) [11]; Bassia scoparia, post-emergence, 240 h, 125 g ai/ha, Postemergence, visual injury after approximately 10 d, 0 to 100 scale where 0 is no effect and 100 is complete control, read-out: Plant response rating, Kochia) was 0%, the pest or weed control at 125 g/ha ([12]; Echinochloa crus-galli, post-emergence, 240 h, 125 g ai/ha, Postemergence, visual injury after approximately 10 d, 0 to 100 scale where 0 is no effect and 100 is complete control, read-out: Plant response rating, Barnyardgrass) was 60% and the pest or weed control at 125 g/ha ([13]; Lolium multiflorum, pre-emergence, 240 h, 125 g ai/ha, Preemergence, visual injury rating after approximately 10 d, read-out: Ryegrass, Italian plant response rating (0 to 100 scale, 0 is no effect, 100 is complete control)) was 0%. The pest or weed control at 500 g/ha ([13]; Lolium multiflorum, pre-emergence, 240 h, 500 g ai/ha, preemergence, visual injury rating about 10 d after treatment, 0 to 100 scale (0 no effect, 100 complete control), read-out: Ryegrass, Italian plant response rating) was 0%, the pest or weed control at 125 g/ha ([14]; Setaria faberi, pre-emergence, 240 h, 125 g ai/ha, Preemergence, visual injury rating after approximately 10 d, read-out: Foxtail, Giant plant response rating (0 to 100 scale, 0 is no effect, 100 is complete control)) was 80% and the pest or weed control at 500 g/ha ([14]; Setaria faberi, pre-emergence, 240 h, 500 g ai/ha, preemergence, visual injury rating about 10 d after treatment, 0 to 100 scale (0 no effect, 100 complete control), read-out: Foxtail, Giant plant response rating) was 90%. For the same compound, the pest or weed control at 125 g/ha ([15]; Amaranthus retroflexus, pre-emergence, 240 h, 125 g ai/ha, Preemergence, visual injury rating after approximately 10 d, read-out: Pigweed plant response rating (0 to 100 scale, 0 is no effect, 100 is complete control)) was 0%, the pest or weed control at 500 g/ha ([15]; Amaranthus retroflexus, pre-emergence, 240 h, 500 g ai/ha, preemergence, visual injury rating about 10 d after treatment, 0 to 100 scale (0 no effect, 100 complete control), read-out: Pigweed plant response rating) was 0% and the pest or weed control at 125 g/ha ([16]; Ambrosia artemisiifolia, pre-emergence, 240 h, 125 g ai/ha, Preemergence, visual injury rating after approximately 10 d, read-out: Ragweed plant response rating (0 to 100 scale, 0 is no effect, 100 is complete control)) was 0%. For the same compound, the pest or weed control at 500 g/ha ([16]; Ambrosia artemisiifolia, pre-emergence, 240 h, 500 g ai/ha, preemergence, visual injury rating about 10 d after treatment, 0 to 100 scale (0 no effect, 100 complete control), read-out: Ragweed plant response rating) was 0%, the pest or weed control at 125 g/ha (Kochia (Kochia scoparia) [17]; Bassia scoparia, pre-emergence, 240 h, 125 g ai/ha, Preemergence, visual injury rating after approximately 10 d, read-out: Kochia plant response rating (0 to 100 scale, 0 is no effect, 100 is complete control)) was 30% and the pest or weed control at 500 g/ha (Kochia (Kochia scoparia) [17]; Bassia scoparia, pre-emergence, 240 h, 500 g ai/ha, preemergence, visual injury rating about 10 d after treatment, 0 to 100 scale (0 no effect, 100 complete control), read-out: Kochia plant response rating) was 30%. The pest or weed control at 125 g/ha ([18]; Echinochloa crus-galli, pre-emergence, 240 h, 125 g ai/ha, Preemergence, visual injury rating after approximately 10 d, read-out: Barnyardgrass plant response rating (0 to 100 scale, 0 is no effect, 100 is complete control)) was 50% and the pest or weed control at 500 g/ha ([18]; Echinochloa crus-galli, pre-emergence, 240 h, 500 g ai/ha, preemergence, visual injury rating about 10 d after treatment, 0 to 100 scale (0 no effect, 100 complete control), read-out: Barnyardgrass plant response rating) was 90%.
